In publication PMC6265919, “Acylated Aminooligosaccharides with Inhibitory Effects against α-Amylase from Streptomyces sp. HO1518” (Marine Drugs, 2018):

Biological target: T1, porcine pancreatic α-amylase (PPA) (Sus scrofa, UniProt P00690)
T1 sequence (P00690 16-511): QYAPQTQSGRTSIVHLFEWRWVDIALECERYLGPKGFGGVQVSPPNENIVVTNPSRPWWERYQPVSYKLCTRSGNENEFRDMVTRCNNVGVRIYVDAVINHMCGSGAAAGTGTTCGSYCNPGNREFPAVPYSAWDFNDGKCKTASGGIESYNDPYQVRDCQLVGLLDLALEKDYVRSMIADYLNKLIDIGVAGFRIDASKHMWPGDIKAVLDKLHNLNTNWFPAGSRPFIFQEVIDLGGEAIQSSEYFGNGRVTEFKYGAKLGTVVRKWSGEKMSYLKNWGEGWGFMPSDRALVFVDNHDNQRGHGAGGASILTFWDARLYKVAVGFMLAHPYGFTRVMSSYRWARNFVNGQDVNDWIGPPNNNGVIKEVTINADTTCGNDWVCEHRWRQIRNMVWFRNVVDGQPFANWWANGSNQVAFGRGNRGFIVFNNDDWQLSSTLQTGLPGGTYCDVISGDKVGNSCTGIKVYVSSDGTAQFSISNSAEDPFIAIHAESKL
Test: Porcine pancreatic α-amylase (PPA) inhibitory activity assay (starch-iodine)
Assay type: biochemical
Details: PPA 50 U/mL, 0.2% soluble starch, phosphate buffer pH 6.9, 20 °C, 30 min; averages of three replicates
Description: Porcine pancreatic α-amylase inhibitory (PPA) inhibitory activity assay was carried out reference to the procedure previously described. In brief, 5 μL of enzyme solution (PPA, 50 U/mL) and 10-fold series diluted test sample solution (inhibitors, dissolved in distilled water) were mixed and pre-incubated. 100 μL of 0.2% soluble starch (substrate, dissolved in 100 mM phosphate buffer, pH 6.9) was added and incubated at 20 °C for 30 min. The reaction was terminated by the addition of 20 μL 1 M HCl. The remaining starch was quantified by using the following method: 100 μL of the reaction solution was mixed with 25 μL of Lugol’s iodine solution. The absorption was measured at 630 nm in the 96-well plates. […] The data were imported into GraphPad Prism version 5.0 (GraphPad Software, San Diego, CA, USA, www.graphpad.com) and the IC50 values were calculated by using a standard dose response curve fitting.

SMILES	IC50 [nM]
CC(=O)OC[C@H]1O[C@H](O[C@H]2[C@H](O)[C@@H](O)[C@@H](O[C@H]3[C@H](O)[C@@H](O)[C@@H](O[C@H]4[C@H](O)[C@@H](O)C(O)O[C@@H]4CO)O[C@@H]3CO)O[C@@H]2CO)[C@H](O)[C@@H](O)[C@@H]1O[C@H]1O[C@H](C)[C@@H](N[C@H]2C=C(CO)[C@@H](O[C@H]3O[C@H](CO)[C@@H](O[C@H]4O[C@H](C)[C@@H](N[C@H]5C=C(CO)[C@@H](O)[C@H](O)[C@H]5O)[C@H](O)[C@H]4O)[C@H](O)[C@H]3O)[C@H](O)[C@H]2O)[C@H](O)[C@H]1O (stereo partly drawn) [compound 1, D6-O-acetyl-acarviostatin II03]	29 ± 1
CC(O)CC(=O)OC[C@H]1O[C@H](O[C@H]2[C@H](O)[C@@H](O)[C@@H](O[C@H]3[C@H](O)[C@@H](O)[C@@H](O[C@H]4[C@H](O)[C@@H](O)C(O)O[C@@H]4CO)O[C@@H]3CO)O[C@@H]2CO)[C@H](O)[C@@H](O)[C@@H]1O[C@H]1O[C@H](C)[C@@H](N[C@H]2C=C(CO)[C@@H](O[C@H]3O[C@H](CO)[C@@H](O[C@H]4O[C@H](C)[C@@H](N[C@H]5C=C(CO)[C@@H](O)[C@H](O)[C@H]5O)[C@H](O)[C@H]4O)[C@H](O)[C@H]3O)[C@H](O)[C@H]2O)[C@H](O)[C@H]1O (stereo partly drawn) [compound 2, D6-O-β-hydroxybutyryl-acarviostatin II03]	49 ± 16
CC(=O)OC[C@H]1O[C@H](O[C@H]2[C@H](O)[C@@H](O)[C@@H](O[C@H]3[C@H](O)[C@@H](O)[C@@H](O[C@H]4[C@H](O)[C@@H](O)C(O)O[C@@H]4CO)O[C@@H]3CO)O[C@@H]2CO)[C@H](O)[C@@H](O)[C@@H]1O[C@H]1O[C@H](C)[C@@H](N[C@H]2C=C(CO)[C@@H](O)[C@H](O)[C@H]2O)[C@H](O)[C@H]1O (stereo partly drawn) [compound 3, D6-O-acetyl-acarviostatin I03]	693 ± 97
CCC(=O)OC[C@H]1O[C@H](O[C@H]2[C@H](O)[C@@H](O)[C@@H](O[C@H]3[C@H](O)[C@@H](O)[C@@H](O[C@H]4[C@H](O)[C@@H](O)C(O)O[C@@H]4CO)O[C@@H]3CO)O[C@@H]2CO)[C@H](O)[C@@H](O)[C@@H]1O[C@H]1O[C@H](C)[C@@H](N[C@H]2C=C(CO)[C@@H](O)[C@H](O)[C@H]2O)[C@H](O)[C@H]1O (stereo partly drawn) [compound 4, D6-O-propionyl-acarviostatin I03]	625 ± 24

Other lines, results leading:

IC50 [nM]	SMILES
495 ± 63	CC(O)CC(=O)OC[C@H]1O[C@H](O[C@H]2[C@H](O)[C@@H](O)[C@@H](O[C@H]3[C@H](O)[C@@H](O)[C@@H](O[C@H]4[C@H](O)[C@@H](O)C(O)O[C@@H]4CO)O[C@@H]3CO)O[C@@H]2CO)[C@H](O)[C@@H](O)[C@@H]1O[C@H]1O[C@H](C)[C@@H](N[C@H]2C=C(CO)[C@@H](O)[C@H](O)[C@H]2O)[C@H](O)[C@H]1O (stereo partly drawn) [compound 5, D6-O-β-hydroxybutyryl-acarviostatin I03]
29 ± 4	C[C@H]1O[C@H](O[C@H]2[C@H](O)[C@@H](O)[C@@H](O[C@H]3[C@H](O)[C@@H](O)[C@@H](O[C@H]4[C@H](O)[C@@H](O)[C@@H](O[C@H]5[C@H](O)[C@@H](O)C(O)O[C@@H]5CO)O[C@@H]4CO)O[C@@H]3CO)O[C@@H]2CO)[C@H](O)[C@@H](O)[C@@H]1N[C@H]1C=C(CO)[C@@H](O[C@H]2O[C@H](CO)[C@@H](O[C@H]3O[C@H](C)[C@@H](N[C@H]4C=C(CO)[C@@H](O)[C@H](O)[C@H]4O)[C@H](O)[C@H]3O)[C@H](O)[C@H]2O)[C@H](O)[C@H]1O (stereo partly drawn) [compound 6, acarviostatin II03]
